Records with an inconclusive call do not appear. Active and inactive are the calls of the source.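 The calls were made as follows: active = fitted activation curve crossing 40% at a concentration no higher than the sample's top valid tested dose; inconclusive = flat fitted curve at 30% to 70% activation, or poor curve fit; inactive = signal decrease, flat curve within 30%, or the rest.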

The assay has as its system NIH3T3-HGL HSF-1 response element luciferase, 48 h. In words: sustained heat shock response element induction – cell-based, mouse, luciferase, cherry-pick, dose, confirmation (AID 602296).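 Also: test compounds applied by themselves with no MG132 co-treatment.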
On to `CC(=O)SC(C[N+](=O)[O-])c1cn(C(C)=O)c2ccccc12` (stereo not drawn), for which the AC40 was > 26 µM (inactive).

In the case of `CCCc1cc(=O)[nH]c(SCC(=O)Nc2ccc(C)cc2)n1`, the AC40 was > 26 µM (inactive).

For the compound `Cn1ccc(C(=O)N/N=C/c2ccncc2)n1`, the AC40 is 14.3 µM.

`COc1cccc(CN2CC(C(=O)NCc3ccc(C)o3)CCC2=O)c1` (stereo not drawn): the AC40 is > 26 µM (inactive).

On to `CCc1nc(SCC(=O)c2ccc(Cl)s2)c2oc3ccccc3c2n1`, for which the AC40 is 18.6 µM.

As for `CC1(C)CC(=O)C2=C(C1)OC(N)=C(C#N)C2C#Cc1ccccc1` (stereo not drawn), the AC40 was 10.4 µM.

For `C=CCn1c(SCC(=O)Nc2cc(NC(C)=O)ccc2OC)nnc1-c1cccnc1`, the AC40 is > 26 µM (inactive).

In the case of `CCCNC(=O)NC(=O)CSc1cccc(C(F)(F)F)c1`, the AC40 was 13.5 µM.

`CC(C)(C)c1[nH]ncc1[N+](=O)[O-]`: the AC40 is > 26 µM (inactive).

Consider `COc1cc2nc(CSc3nc(-c4ccc(F)cc4)cs3)[nH]c(=O)c2cc1OC`, for which the AC40 is > 26 µM (inactive).

`Cc1nc2ncnn2c(C)c1CCC(=O)NCc1ccco1`: the AC40 was > 26 µM (inactive).

Regarding `Cc1cccc(NCc2nc3ccccc3n2C)c1`, the AC40 was 1.61 µM.

`O=C(NCc1ccccc1)c1c(Cl)nc(Cl)c(Cl)c1Cl`: the AC40 was > 26 µM (inactive).

For the compound `Cn1cc(C(=O)N/N=C/c2cc(Br)cs2)c2ccccc21`, the AC40 was 11.3 µM.

Turning to `C/C(=N\NC(=O)c1ccoc1C)c1cccc2ccccc12`, the AC40 is 10.2 µM.

Take `Nc1nc(SCC(=O)Nc2ccc([N+](=O)[O-])cc2Br)n[nH]1`: the AC40 was > 26 µM (inactive).

`CCC(C)c1ccccc1NC(=O)c1cc(C)no1` (stereo not drawn): the AC40 was > 26 µM (inactive).

Consider `CCN(C(=O)c1cc2c(=O)[nH]c3ccc(C)cc3c2s1)c1ccccc1F`, for which the AC40 was > 26 µM (inactive).

Take `O=C(NC1C(=O)NNC1c1ccccc1)c1ccccc1` (stereo not drawn): the AC40 is 6.88 µM.

Turning to `Brc1cnc2nc(SC/C=C/c3ccccc3)[nH]c2c1`, the AC40 is 20.8 µM.

In the case of `COc1ccc(C2C(C(C)=O)=C(O)C(=O)N2c2ccc(C)cc2)cc1` (stereo not drawn), the AC40 was > 26 µM (inactive).

For `COc1ccc(CCNc2ncnc3c2c(C)c(C)n3CCO)cc1OC`, the AC40 is > 26 µM (inactive).

`CCN1CC(CN(C)Cc2nc(COc3ccccc3)no2)CC1=O` (stereo not drawn): the AC40 is > 26 µM (inactive).

On to `O=C1NCC2=C1C(c1ccc(Br)cc1)Nc1ccccc1N2` (stereo not drawn), for which the AC40 was 3.58 µM.

As to `c1ccc(SCCOCCN2CCOCC2)cc1`, the AC40 is > 26 µM (inactive).

Turning to `O=C(O)CC12C[C@H]3C[C@@H](C1)CC(n1ncc(N4CCN(c5ccccc5)CC4)c(Cl)c1=O)(C3)C2`, the AC40 is > 26 µM (inactive).

Take `COC(=O)c1ccc(OC(=O)CCN2C(=O)C3CCCCC3C2=O)cc1` (stereo not drawn): the AC40 is > 26 µM (inactive).

Consider `S=c1[nH]cc(Cc2ccccc2)s1`, for which the AC40 is 23.4 µM.

On to `Cc1ccc2nc(NCc3ccccc3)c(C=O)c(=O)n2c1`, for which the AC40 is 11 µM.

Take `CCOC(=O)c1c(-c2ccc(C)o2)csc1NC(=O)CSc1nncs1`: the AC40 was 13.6 µM.

Turning to `COc1cnn(-c2cc(Oc3ccc(C)cc3)ncn2)c(=O)c1Cl`, the AC40 was > 26 µM (inactive).

Take `O=[N+]([O-])c1cc([N+](=O)[O-])c(Oc2c(F)cccc2F)cc1NN1CCCCC1`: the AC40 is > 26 µM (inactive).

Turning to `COc1ccc(C2C3=C(CCCC3=O)N(CC(=O)O)C3=C2C(=O)CCC3)cc1Cl`, the AC40 was > 26 µM (inactive).

As for `CC(OC(=O)/C=C/c1ccc2ccccc2n1)C(=O)NCc1ccccc1` (stereo not drawn), the AC40 was 25.9 µM.

With `CC(C)c1ccc(C2NC(=O)c3ccccc3O2)cc1` (stereo not drawn), the AC40 was 5.17 µM.

`OC(CNCc1cccc(Cl)c1)c1ccccc1` (stereo not drawn): the AC40 is 24.8 µM.

For `Cc1cc(C)c2cc(C(=O)N(C)C3CCN(C)CC3)[nH]c2c1`, the AC40 was > 26 µM (inactive).

Take `Cc1ccc(SCCCCN2CCOCC2)cc1`: the AC40 was 23.9 µM.

With `Cc1cc2oc3c(c(=O)c2cc1C)C(c1ccc(C(C)C)cc1)N(CCCN1CCOCC1)C3=O` (stereo not drawn), the AC40 was > 26 µM (inactive).

For `CN(Cc1nnc(-c2ccc(F)cc2)o1)c1ccccc1`, the AC40 is 9.33 µM.

As for `COc1ccc(-c2nnc3ccc(SCC(=O)NCC4CCCO4)nn23)cc1` (stereo not drawn), the AC40 was > 26 µM (inactive).

Take `FC(F)(F)c1cccc(NC(=S)NCc2ccccn2)c1`: the AC40 is 7.35 µM.

For `C/C(CC(=O)Nc1cccc2c1CCCC2)=N\NC(=O)COc1ccccc1`, the AC40 was > 26 µM (inactive).

Take `COc1cc2[nH]c(=S)n(Cc3ccco3)c(=O)c2cc1OC`: the AC40 was > 26 µM (inactive).

With `O=C1c2cccc3cccc(c23)C(=O)N1OS(=O)(=O)c1ccccc1`, the AC40 was 16 µM.

As for `Cn1c(CCC(=O)OCC(=O)Nc2ccc(Oc3ccccc3)cc2)nc(=O)c2ccccc21`, the AC40 was > 26 µM (inactive).

Turning to `Cc1ccccc1OCCCC(=O)Nc1ccccc1C(F)(F)F`, the AC40 is > 26 µM (inactive).

Take `S=C(NC1CCCCC1)NC1CC2C=CC1C2` (stereo not drawn): the AC40 was > 26 µM (inactive).

On to `CC1=Nc2cc(C(=O)O)ccc2Sc2c(C)ccc(C)c21`, for which the AC40 was > 26 µM (inactive).

Consider `CCSc1nnc(NC(=O)c2cccnc2Cl)s1`, for which the AC40 was 6.92 µM.

`COc1ccc(C2CC(=O)c3cnc(N4CCc5ccccc54)nc3C2)cc1OC` (stereo not drawn): the AC40 was > 26 µM (inactive).

Consider `CC(C)n1cc(/C=N/NC(=O)COc2cccc3cccnc23)c2ccccc21`, for which the AC40 was > 26 µM (inactive).

On to `COCOc1cc(O)c(C(=O)/C=C/c2ccccc2)c(OCOC)c1`, for which the AC40 is 7.9 µM.

On to `CCN(CCCNC(=O)CNC(=O)c1nn(-c2ccc(OC)cc2OC)c(=O)c2ccccc12)c1cccc(C)c1`, for which the AC40 is > 26 µM (inactive).

Turning to `CN(C)C(=O)c1ccc(=O)n(Cc2ccc(Cl)cc2Cl)c1`, the AC40 is > 26 µM (inactive).

For `Cc1nnc(Sc2nc3c(c(=O)n(C)c(=O)n3C)n2Cc2ccccc2Cl)s1`, the AC40 was > 26 µM (inactive).

Turning to `C=CCn1c(O)c(C(CC)=Nc2ccc3c(c2)CCC3)c(=O)[nH]c1=O`, the AC40 was > 12 µM (inactive).

For `COC(=O)C1CCN(C(=O)COC(=O)c2ccc(OC)c(S(=O)(=O)N3CCCc4ccccc43)c2)CC1`, the AC40 was 9.15 µM.

As to `Cc1c(Cl)ccc2c1NC(=O)C21NC(CCC(N)=O)[C@H]2C(=O)N(c3ccc(Cl)cc3)C(=O)[C@H]21` (stereo partly drawn), the AC40 is > 12 µM (inactive).

On to `NS(=O)(=O)c1ccc(NC(=O)CN2C(=O)CCC2=O)cc1`, for which the AC40 is > 26 µM (inactive).

Regarding `CC(C)CCN=CC1=C(O)CC(c2ccccc2)CC1=O` (stereo not drawn), the AC40 is > 26 µM (inactive).

Turning to `CCN(CC)C(=O)c1ccc(C)c(Br)c1`, the AC40 is > 26 µM (inactive).

Regarding `CCS(=O)(=O)C(=C1NCCO1)S(=O)(=O)CC`, the AC40 is > 26 µM (inactive).

For the compound `COC(=O)c1cc(OC)c(OC)cc1NC(=S)NC(=O)c1ccco1`, the AC40 was > 26 µM (inactive).

In the case of `CCOC(=O)c1sc2nc(C)nc(SCC(=O)NC3CCS(=O)(=O)C3)c2c1C` (stereo not drawn), the AC40 is > 26 µM (inactive).

On to `CCOC(=O)c1cc(C#N)c(SCc2ccc(C#N)cc2)nc1C`, for which the AC40 was > 26 µM (inactive).

`CCOC(=O)c1sc(C)c2c1NC(C)(c1cccc3ccccc13)NC2=O` (stereo not drawn): the AC40 was > 26 µM (inactive).

As to `COC(=O)C(C)N(C(=O)c1ccc(C(=O)c2ccccc2)cc1)c1c(C)cccc1C` (stereo not drawn), the AC40 was 19.3 µM.

For `CN1CCC(=NNc2ccc(S(=O)(=O)N3CCOCC3)cc2[N+](=O)[O-])CC1`, the AC40 was > 26 µM (inactive).

As for `CCOC(=O)C(CCOc1cccc(CC)c1)C(=O)OCC`, the AC40 was > 26 µM (inactive).

With `COc1ccc2nc(SC)c(C#N)cc2c1`, the AC40 was > 26 µM (inactive).

Take `O=C(Nc1cccn2ncnc12)C(F)(F)F`: the AC40 is > 26 µM (inactive).

Consider `Cc1ccc(C)c(CN2C(=O)COc3ccccc32)c1`, for which the AC40 is > 26 µM (inactive).

For the compound `COc1ccc(-c2cc(C(=O)NCc3ccco3)c3ccccc3n2)cc1`, the AC40 is > 26 µM (inactive).

`Cc1cccc(N2CCN(C(=O)CSCc3c(C)noc3C)CC2)c1C`: the AC40 was 20.1 µM.

With `O=C(NC1CCSc2ccccc21)c1ccccc1Cl` (stereo not drawn), the AC40 is 6.46 µM.

For the compound `O=C(CSc1nc2nccnc2c(=O)n1Cc1cccs1)Nc1ccccc1F`, the AC40 is 9.52 µM.

With `Cc1[nH]nc2c1C(c1cc(Br)cs1)C(C#N)=C(N)O2` (stereo not drawn), the AC40 is 12 µM.

`NC(=O)CSC1=N/C(=C\c2ccco2)C(=O)N1c1ccc(OC(F)F)cc1`: the AC40 is 8.11 µM.

Consider `COc1cc(/C=N/N2C(=O)c3ccccc3NC2(C)c2cccc([N+](=O)[O-])c2)cc(Br)c1O` (stereo not drawn), for which the AC40 is > 26 µM (inactive).

For the compound `C=CCn1c(-c2cc(-c3ccccc3)sc2N)n[nH]c1=S`, the AC40 is 12.3 µM.

For `COc1ccc(-n2cc(CNCc3cccnc3)c(-c3cccc(F)c3)n2)cc1`, the AC40 is > 26 µM (inactive).

`Cc1nc2ccc(Br)cc2c(=O)n1Cc1cccs1`: the AC40 is > 26 µM (inactive).

For the compound `Cc1ccc(CN2CCN(CC(C)C)C(CCO)C2)s1` (stereo not drawn), the AC40 is 1.66 µM.

Take `Cc1ncc([N+](=O)[O-])n1CCOC(=O)c1cc(Cl)cc(Cl)c1N`: the AC40 is > 26 µM (inactive).

As to `CC(C)(C)NC(=O)c1ccc2c(c1)N(CC(=O)N1CCCCC1)C(=O)C(C)(C)O2`, the AC40 was > 26 µM (inactive).

For `CCOc1ccc(CN(C)C(=O)CNC(=O)c2ccc3ccccc3c2)cc1OC`, the AC40 is > 26 µM (inactive).

Consider `COc1ccc(NC(=O)NNC(=O)c2cc3occc3n2C)c(OC)c1`, for which the AC40 is > 26 µM (inactive).

With `O=C(NCC1CCCO1)c1nn2c(C(F)(F)F)cc(-c3cc(Br)cs3)nc2c1Br` (stereo not drawn), the AC40 is > 26 µM (inactive).

Take `Cc1ccc(NC(=O)Cn2c(CCC(=O)O)ccc2-c2cccs2)cc1`: the AC40 was > 26 µM (inactive).

On to `Cc1ccc(CSc2nc3ccccc3c(=O)n2CCCC(=O)NCc2ccco2)cc1`, for which the AC40 was > 26 µM (inactive).

In the case of `Cn1c(=O)c(/C=C/c2ccc(F)cc2)nc2ccccc21`, the AC40 is 1.99 µM.

Take `CCOC(=O)/C=C(\C)Nc1cc(C)nn1-c1ccccc1`: the AC40 was 17.2 µM.

Source of the values: PubChem BioAssay AID602296 (Broad Institute, 2012).
